One compound from patent publication US10798939B2, “Cellulose binding domain chitosan seed coating” (priority 2015, dated 2020) can be followed below.

For the data set, the system named is V. radiata. Particulars: AgNO3 0-2 mM bolus doses, day 4 to day 8.

Procedure: For two days beans were allowed to germinate in the dark at 20° C. as described above. On day 3, the plate was incubated at 20° C./12 hr photoperiod and 100% humidity, and 500 μL of distilled water were added to each well. On day 5 another 750 μL of distilled water were added and the cover of the well plate was removed. The EC50 was determined as the concentration at which the change in mass of the seedling was half that of untreated V. radiata.

Take `O=[N+]([O-])[O-].[Ag+]` [AgNO3, silver nitrate]: the “change in mass of V. radiata” value is “decreased significantly in a dose response fashion”.
